Four compounds from US11191291B2, “Compositions for taste masking” (International Flavors & Fragrances Inc., priority 2016, dated 2021) can be followed below.

The assay can be described thus: Sensory panel ranking of lingering aftertaste masking on a 0-5 scale (Example III). The assay is classed as in vivo. Conditions: for Masking Effect: scale of 0-5, 0=no masking, 5=very strong masking; for Taste compared with the control: αG SWEET 0.14% solution, water used in control group, concentration series. Here is the method: A solution of αG SWEET was prepared in water at a concentration of 0.14%. The Emblica officinalis fruit extract (prepared as above in Example I) containing the mucic acid 2-O-gallate (11.84%) and mucic acid lactone gallate (6.35%) mixture, individual fractions containing each of mucic acid 2-O-gallate, mucic acid lactone gallate, galloyl glucose (prepared in Example I) and mucic acid 3-O-gallate (Quality Phytochemicals, LLC, New Jersey, U.S.) were added to the αG SWEET solution, respectively, to achieve a series of concentrations ranging from about 50-80 ppm for the Emblica officinalis fruit extract; about 5-20 ppm for mucic acid 2-O-gallate; about 5-20 ppm for mucic acid 3-O-gallate; about 2-10 ppm for mucic acid lactone gallate; and about 10-20 ppm for galloyl glucose. Water was used in a control group. Samples were presented in a blind and pseudorandom order to a sensory panel. The lingering aftertaste-masking effect was evaluated by ranking the suppression of bitterness, metallic aftertaste and lingering sweetness on a scale of 0-5, where 0=no masking and 5=very strong masking.

[1] abbreviates: 20 ppm in αG SWEET 0.14% solution.

galloyl glucose [reference compound]: the “Taste compared with the control” value is “very low effect”. Under setting [1], the “Masking Effect” value is reported as 0.

For `O=C(OC(C(=O)O)C(O)C(O)C(O)C(=O)O)c1cc(O)c(O)c(O)c1` (centres unmarked) [Mucic acid 2-O-gallate, mucic acid 2-O-gallate], the “Taste compared with the control” value is “tasted considerably less bitter and the lingering metallic off-note was reduced”. Moreover, the “Masking Effect” value under setting [1] worked out at 1.

In the case of `O=C(OC(C(O)C(=O)O)C(O)C(O)C(=O)O)c1cc(O)c(O)c(O)c1` (centres unmarked) [Mucic Acid 3-O-Gallate, mucic acid 3-O-gallate], the “Taste compared with the control” value was “tasted considerably less bitter and the lingering metallic off-note was reduced”. Further, under setting [1], the “Masking Effect” value turned out to be 1.

For the compound `O=C(OC(C(=O)O)C1OC(=O)C(O)C1O)c1cc(O)c(O)c(O)c1` (centres unmarked) [Mucic acid lactone gallate, mucic acid lactone gallate], the “Taste compared with the control” value is “tasted considerably less bitter and the lingering metallic off-note was reduced”. Besides, for the setting “10 ppm in αG SWEET 0.14% solution”, the “Masking Effect” value worked out at 2.
